Laboratory results published in patent US8822410B2, “Tympanic membrane permeating ear drops and uses thereof” (Children's Medical Center Corporation, priority 2008, dated 2014).

What was measured:
[1] = pH of ciprofloxacin solutions; type: physicochemical; details: 1% ciprofloxacin solution
[2] = tested on: S. pneumoniae; details: middle ear infections; cited from earlier work
[3] = tested on: H. influenza; details: middle ear infections; cited from earlier work

**Q.** Which “pH of ciprofloxacin solution” value [1] does the source give for `O=C(O)c1cn(C2CC2)c2cc(N3CCNCC3)c(F)cc2c1=O` [ciprofloxacin] here?
**A.** Its value is 3-4.

**Q.** What about the minimum inhibitory concentration [2] of the same compound?
**A.** Its minimum inhibitory concentration is “about 4 μg/mL”.

**Q.** What about the minimum inhibitory concentration [3] of the same compound?
**A.** Its minimum inhibitory concentration is “about 4 μg/mL”.
